Measurements taken from patent publication US12661331B2 (priority 2019, dated 2026).

Test system: PUUV
Design: species or system AG129 mice
Settings: mouse, in vivo

SMILES: O=C(O)c1ccc(F)c(F)c1Nc1ccc(I)cc1Cl [ATR-002, 2-(2-chloro-4-iodophenylamino)-N-3,4-difluoro benzoic acid]
- virus in the kidney: no virus could be detected
- virus in the lung: no virus could be detected
- virus titer reduction compared to animals treated with solvent only (75 mg/kg/day): complete virus titer reduction
